In ChEMBL document CHEMBL1131953, “Synthesis of a tetrasubstituted bicyclo [2.2.2] octane as a potential inhibitor of influenza virus sialidase” (Bioorg Med Chem Lett, 1999):

Tests used:
[1] = test system: Influenza A virus; assay: Inhibitory activity against sialidase of influenza A; format: functional, organism-based
[2] = test system: Influenza B virus; assay: Inhibitory activity against sialidase of influenza B; format: functional, organism-based
[3] = test system: Influenza B virus; assay: Inhibitory activity against sialidase of influenza B at a concentration of 660 uM; format: functional

Row | Compound | IC50 [1] [µM] | IC50 [2] [µM] | inhibition at 660 µM [3] [%]
1 | CCCO[C@@H]1C=C(C(=O)O)C[C@H](N)[C@H]1NC(C)=O | 0.13 |  | 
2 | CCCO[C@@H]1CC2(C(=O)O)CC[C@@]1(NC(C)=O)[C@@H](O)C2 (single isomer, unassigned) | 660 | 660 | 12
